# In patent publication US20250361214A1, “TRIAZINE LIPIDS, LIPID SYNTHESIS, AND METHODS FOR INHIBITING CANONICAL NFKB TRANSCRIPTIONAL ACTIVITY” (University of Kentucky Research Foundation, priority 2022, published 2025):
# Entries after “also recorded” stand apart in the source; their conditions may differ.
# Key:
# C57BL/6J mice = assay: In vivo toxicity of cationic lipid nanoparticles (ALT, IL-6, SCr, mortality)
# J774 murine macrophages = assay: CD80 expression on macrophages treated with lipid; type: cell-based; settings: 16 hours
# Source text: Increased expression of CD80 after TZ3 treatment aligns with data observed for DOTAP,^109 and supports the hypothesis that cationic lipids activate the non-canonical NFKB pathway leading to enhanced antigen presentation and co-stimulatory molecule expression.
# [1] = Size and charge determination of nanoparticles (Zetasizer Nano ZS), Example 1; type: physicochemical
# Source text: Size and Charge Determination.
# [2] = Differential scanning calorimetry, transition temperature (Tm) of lipids; type: physicochemical; settings: liposomes of pure lipid, 10 mM in 20 mM HEPES, DSC
# Protocol: Differential Scanning calorimetery. The transition temperature (Tm) of the lipids was determined using a multicell differential scanning calorimeter (TA Instruments). Liposomes were made with triazine lipids at a concentration of 10 mM in 20 mM HEPES buffer. These were heated to 60° C. and sonicated until the solution was translucent. For Tm determination, 250 μL of the liposome solution was transferred into reusable hastelloy ampoules while 250 μL of the HEPES solution was transferred to the third ampoule, leaving the reference ampoule empty. […] Data was collected over a range of 10-110° C. at a rate of 2° C. min-1 in a heat-cool-heat cycle. After the run was complete, the CpCalc 2.1 software package was used to convert the raw data into a molar heat capacity and the data from the second heating cycle were processed using Microsoft Excel.
# [3] = Nanoparticle pKa via TNS fluorescence; type: physicochemical; settings: liposomes of the cationic lipid in buffer, probe 2-(p-toluidino)-6-napthalene sulfonic acid (TNS), 1 µM final, pH 2.5 to 12, read-out: pKa
# Protocol: Determination of Nanoparticle pKa via TNS Fluorescence. […] The solutions were mixed by pipetting and incubated at room temperature for 10 minutes, before being analysed for fluorescence intensity using a 321 nm excitation and 445 nm emission wavelengths.
# HeLa cells = assay: Transfection of luciferase plasmid; type: cell-based; settings: TZ lipid:DOPE 1:1, compared with naked plasmid
# Protocol: Transfection of Luciferase Plasmid and Cell Viability. HeLa cells cultured in EMEM (ATCC) supplemented with 10% fetal bovine serum were transferred to a 96 well plate, in quadruplicate, at a density of 20,000 cells per well and incubated for 24 hours at 37° C. in 5% CO2. Liposomes made with a 1:1 ratio of DOPE and TZ lipid were added to 200 ng pGL3 Luciferase Reporter Vector (Promega) at N:P ratios of 2.5, 5 and 10, and incubated at 37° C. for 10 minutes before being diluted in 100 μL of nonsupplemented EMEM and added to the cells. Following a four hour incubation at 37° C., the media was changed, and the cells were incubated for another twenty hours, at which point the cells were lysed with a cell culture lysis reagent at pH 7.8 composed of 25 mM Tris-phosphate buffer, 0.7 g L^−1 1,2-diaminocyclohexane, 10% glycerol, 1% Triton X-100, and 1% protease inhibitor cocktail (Millipore). Total protein content was determined with a bicinchoninic acid assay (G-Biosciences) and luciferase protein expression was quantified by a luciferase assay (Promega). Cell viability was assessed using a Cell Titer Blue assay kit (Promega) based on the manufacturer's instructions. In each of the three independent experiments performed, transfection was compared with cells treated with Lipofectamine 3000 (Thermo), following the manufacturer's instructions, and with DNA treated cells.
# BALB/c mice = assay: Anti-hAAT antibody titers and IgG subclass ratios; type: in vivo, mouse
# Protocol: To assess the presence of antibodies toward hAAT, 50 μL of hAAT (OriGene #RG202082) was plated at 2 μg/mL in carbonate buffer, pH 9.7, on a 96 well high binding plate (Greiner #82050-720) and incubated overnight at 4° C. The next day, the plates were washed with PBS containing 0.1% Tween-20 (PBS-T) and blocked for 1 hour with PBS-C at 37° C. After blocking, serum samples were plated at dilutions ranging from 1:100 to 1:1,000,000 and incubated at 37° C. for 2 hours. Secondary antibody (goat anti-mouse IgG HRP; Invitrogen #16066) diluted 1:2000 was applied for 30 min at 37° C., followed by a 30 min. incubation with tetramethylbenzidine (Rockland). Absorbance at 450 nm was recorded using a BioTek Synergy H1 microplate reader. Reciprocal endpoint titers were determined by plotting A450 values versus known dilutions, calculating the slope of that line, and dividing the slope by two times the average of the blank (no serum) wells.
# Anti-hAAT IgG subclass ratios were assessed as described above, using a single 1:100 sample dilution and the following detection antibodies: goat anti-mouse IgG1-HRP (Abcam ab98693) at 1:10,000, IgG2a-HRP (Abcam ab98698) at 1:5000, IgG2b-HRP (Abcam ab98703) at 1:10,000 and IgG3 (Jackson 115-035-209) at 1:5000. Subclass ratios were calculated by dividing the absorbance of each subclass by that of IgG1 for each individual mouse.
# canonical NFKB = assay: THP-1-Blue NFKB reporter (SEAP) assay; type: cell-based, human
# in vitro = type: cell-based; settings: female, C57BL/6J, mouse
# Protocol: Cell Culture of Bone Marrow-Derived Macrophages. […] After 7 days, the cells were transferred to tissue culture 96 well plates (Corning) at a density of 100,000 in 20 μL of medium and allowed to settle overnight for subsequent assays.
# Lactate Dehydrogenase Release (LDH) Toxicity Assay. For determination of cytotoxicity, mature bone marrow-derived macrophages (BMDM) were treated with 20 μL of the lipids (concentrations denoted in figure legend) diluted in 20 mM HEPES buffer, with HEPES buffer as negative control and 10% Triton X-100 as positive control. After 24 hours, the 96 well plates were centrifuged at 200×g for 5 minutes to remove debris and 100 μL of media was transferred to an untreated flat-bottom 96 well plate. Next, 100 μL of LDH reaction reagent purchased from Cayman Chemical (Ann Arbor, MI) was added to each and allowed to sit for 30 minutes at 37° C. Absorbance at 490 and 680 nm were measured using a BioTek Synergy H1 plate reader and the data were processed using Microsoft Excel. Mean values from triplicates are shown for one of two independent experiments.
# [4] = 20 mM lipid, i.p., versus baseline
compound,measurement,setting,value
CCCCCCCCCCCCN(CCCCCCCCCCCC)c1nc(NCCCN)nc(NCCCN)n1 [Lipid 3],interleukin 6 (IL-6),C57BL/6J mice; [4],trended upward
same,serum alanine aminotransferase (ALT),C57BL/6J mice; [4],trended upward
same,in vivo toxicity (overall),"C57BL/6J mice; 100 μL cationic lipid nanoparticles i.p., listed as TZ3",comparable toxicity to DOTAP; also recorded: does not induce significant in vivo toxicity
same,CD80 expression,"J774 murine macrophages; MFI relative to untreated cells, listed as TZ3","does-dependent increase in mean fluorescence intensity (MFI) of CD80; also recorded: dose-dependent increase in expression of the co-stimulatory molecule, CD80"
same,cell viability (ZombieDye live/dead stain),J774 murine macrophages; across lipid concentrations,cells are viable across lipid concentrations
same,PDI,[1]; nanoparticles of pure lipid (Table 1),0.41 ± 0.02
same,Size,"[1]; nanoparticles of pure lipid, 1 mM, 25° C. (Table 1)",130 ± 2 nm
same,Charge,"[1]; zeta potential, nanoparticles of pure lipid (Table 1)",52 ± 3 mV
same,Tm,[2],< 10 °C
same,pKa,[3],7.37
same,plasmid transfection (luciferase),HeLa cells,better efficacy than the lipids with C18 tails
same,increase in anti-hAAT titers versus the two control lipids,"BALB/c mice; 25 μg hAAT protein concurrent with 1 mM lipid, day 14",1000 fold
same,increase in antibody titer toward a model antigen,BALB/c mice; absence of additional adjuvants (FIG. 60),greater than 3 orders of magnitude
same,"ratios of IgG2a, 2b and 3 to IgG1",BALB/c mice; hAAT protein delivered with lipids,more balanced IgG2a/IgG1 ratio than DOTAP and DMPC
same,antibody response relative to DOTAP,BALB/c mice; hAAT protein delivery,two orders of magnitude greater than DOTAP
same,RET (anti-hAAT),BALB/c mice; lipid used to deliver the hAAT protein,"> 100,000"
same,anti-hAAT IgG titers,"BALB/c mice; transgene delivery, 10 μg hAAT DNA, day 14, versus untreated mice",significantly higher anti-hAAT titers than untreated mice
same,"Th1/Th2 response (ratios of IgG2a, 2b, and 3 over IgG1)",BALB/c mice; transgenic hAAT delivery with LPs,balanced Th1/Th2 response
same,IC50,"canonical NFKB; Homo sapiens, THP-1-Blue cells stimulated with TNFα, 24 h lipid treatment, read-out: IC50, canonical NFKB inhibition",4 µM
same,IC80,"canonical NFKB; Homo sapiens, canonical NFKB inhibition",10 µM
same,canonical NFKB inhibition,"canonical NFKB; THP-1-Blue cells stimulated with TNFα, listed as TZ3","dose dependent, but not affected by duration of exposure; also recorded: dose dependent inhibition of the canonical NFKB pathway"
same,IC50 at 24 h,in vitro,111 µM
